{"source": "patent US12491198B2", "about": "“Doxycycline injection for sclerotherapy of lower eyelid festoons and malar edema” (LKF21, LLC, priority 2020, dated 2025)", "key": {"[1]": {"test_system": "edema of festoons and malar mounds", "assay": "Studies of doxycycline as sclerosing agent at lower concentrations and compared with tetracycline", "assay_type": "in vivo", "details": "versus tetracycline"}, "[2]": {"test_system": "lower eyelid festoons and malar edema", "assay_type": "in vivo, human", "protocol": "An initial study of 15 consecutive patients with malar edema and/or festoons were injected with doxycycline hyclate at a concentration of 10 mg/mL. Pre- and post-injection photographs were reviewed and graded on a scale of 0 to 3 (0 no festoon, 1 small festoon, 2 medium festoon, 3 large festoon) by two blinded physician observers. […] Student t-test was used for statistical analysis.\nInstitutional Review Board (IRB) approval was obtained. A retrospective chart review was performed on 15 consecutive patients injected with doxycycline hyclate at a concentration of 10 mg/mL directly into their malar edema and festoons. The primary outcome measure was improvement in the appearance of lower eyelid festoons or malar edema. Pre- and post-injection photographs were reviewed and graded on a scale of 0 to 3 (0 no festoon, 1 small festoon, 2 medium festoon, 3 large festoon) by two blinded physician observers. All pre- and post-treatment photographs were taken in a standardized position without the use of a flash device. Written consent was obtained for the use of photographs and is on file with the authors. Additional data collected included patient age, volume of injection, location of injection, number of injections, and subjective complaints. […] Student t-test was used for statistical analysis.\nPatients were offered injections in clinic or in the operating room with intravenous sedation, with or without concurrent eyelid surgery. For injections performed in the operating room, doxycycline hyclate was ordered from the hospital pharmacy at a concentration of 10 mg/mL. For injections performed in the office, doxycycline hyclate 100 mg sterile powder, lyophilized (Fresenius Kabi, Lake Zurich, Illinois, USA) was diluted to a concentration of 10 mg/mL with sterile 0.9% bacteriostatic sodium chloride solution. The solution was refrigerated at […], used within 48 hours of reconstitution, and protected from direct sunlight. Injections were performed using 1.0 mL syringes on a 30-gauge needle, directly into the festoon in multiple deep and intermediate planes beneath skin and muscle. Analysis of protected health information was compliant with the Health Insurance Portability and Accountability Act (HIPAA) and adherent to the Declaration of Helsinki."}}}
{"molecule": "C[C@H]1c2cccc(O)c2C(=O)C2=C(O)[C@]3(O)C(=O)C(C(N)=O)=C(O)[C@@H](N(C)C)[C@@H]3[C@@H](O)[C@@H]21", "note": "[doxycycline hyclate]", "values": [{"measurement": "risk of necrotizing dermalysis compared with tetracycline", "setting": "[1]", "value": "significantly lower risk"}, {"measurement": "bruising, average duration", "setting": "[2]; human, in vivo", "value": 10, "unit": "days"}, {"measurement": "patients reporting burning pain during the injection", "setting": "[2]; human, in vivo", "value": 100, "unit": "%"}, {"measurement": "skin redness, average duration of symptoms", "setting": "[2]; human, in vivo", "value": 2, "unit": "days"}, {"measurement": "average (standard deviation) festoon grade after injection", "setting": "[2]; post-injection, 10 mg/mL intralesional, scale 0 to 3, 20 treatment sides of 11 patients, mean follow up 22.5 weeks, p-value<0.001 vs initial", "value": "0.9 (0.82)"}, {"measurement": "average (standard deviation) initial festoon grade", "setting": "[2]; pre-injection, scale 0 to 3 (0 no festoon, 3 large festoon), 20 treatment sides of 11 patients, two blinded physician observers", "value": "2.5 (0.58)"}]}
